Laboratory results published in PubChem BioAssay (NCI).
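Results reflect a 48-hour exposure of cells in 96-well plates to compound at five concentrations. GI50 = concentration required for 50% inhibition of growth. At the TGI there is no net growth.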

Experiments:
Assay in all cases: inhibition of tumour cell growth, NCI panel, 48 h
[1] = system: UACC-257 melanoma
[2] = system: RXF 393 renal
[3] = system: SK-MEL-2 melanoma
[4] = system: SF-295 CNS
[5] = system: ACHN renal
[6] = system: OVCAR-5 ovarian
[7] = system: COLO 205 colon
[8] = system: SF-268 CNS
[9] = system: UO-31 renal
[10] = system: LOX IMVI melanoma

Compound | TGI [1] [µM] | TGI [2] [µM] | TGI [3] [µM] | TGI [4] [µM] | TGI [5] [µM] | TGI [6] [µM] | TGI [7] [µM] | TGI [8] [µM] | TGI [9] [µM] | TGI [10] [µM] | GI50 [1] [µM] | GI50 [3] [µM] | GI50 [4] [µM] | GI50 [5] [µM] | GI50 [6] [µM] | GI50 [10] [µM] | GI50 [7] [µM] | GI50 [8] [µM] | GI50 [9] [µM] | GI50 [2] [µM]
COCN1COCN=C1NC#N | > 100 | > 100 | > 100 | > 100 | > 100 | > 100 | > 100 | > 100 | > 100 |  |  |  |  |  |  |  |  |  |  | 
COC(=O)N/N=C(\C)c1c(O)cc(C)oc1=O | > 100 |  | > 100 | > 100 | > 100 |  |  | > 100 | > 100 | 44.5 |  |  |  |  |  |  |  |  |  | 
Cc1ccc(/C=N/Nc2nc(Nc3ccccc3)nc(-n3nc(C)cc3C)n2)cc1 | 39.5 |  | 27 | 14.4 | 56.6 | > 100 | 13.4 | > 100 | 19.7 | 22.1 | 9.04 | 5.72 | 2.74 | 4.44 | 15.4 | 3.81 | 3.6 | 4.42 | 4.09 | 
COC(=O)C1=C(O)[C@H](C(=O)OC)C2(O)C(C(=O)OC)[C@H](c3ccc(OC(=O)C(C)c4ccc(CC(C)C)cc4)cc3)C[C@@H]1[C@@H]2C(=O)OC (stereo not given in full) | > 50 |  | > 50 | > 50 | 31.3 | > 50 | 41.3 | > 50 | > 50 | 14.9 | 27.2 | 24.9 | > 50 | 12 | 17 | 6.06 | 12.3 | > 50 | 12.3 | 
CC(=O)c1c2c(cc3c1CC1(C3)Cc3cc4c(c(C(C)=O)c3C1)CCC4)CCC2 | > 100 | > 100 |  | > 100 | > 100 | > 100 | > 100 | > 100 | > 100 | > 100 |  |  |  |  |  |  |  |  |  | 
CN(C)CCNC(=O)c1cccc2cc3c(Cl)cccc3nc12 | 3.99 | 3.62 | 3.5 |  | 2.35 | 6.68 | > 29.3 |  | > 28.7 | 2.33 |  |  |  |  |  |  |  |  |  | 
O=C(/C=C\c1ccc([N+](=O)[O-])cc1)c1ccccc(=O)c1O | 7.85 |  | 6.93 | 14.7 | 2.85 | 9.92 | 0.967 | 37.3 | 3.3 | 2.86 |  |  |  |  |  |  |  |  |  | 
CCCCCCCCCCCCCC[N+](C)(C)CCCCCCCCCCCCCC | 8.61 | 2.78 |  | 37.7 | 6.85 | 9.91 |  | 8.38 | > 100 |  | 2.49 |  | 7.72 | 2.62 | 2.92 |  |  | 2.92 | 4.44 | 1.28
COC12C=C/C(=C(/C(=O)OCc3ccccn3)C(=O)CCCCCCCCC3(OC)C=C/C(=C(/C(=O)OCc4ccccn4)C(=O)CCCCCCCC1)O3)O2 | 4.27 | 0.357 | 3.85 | 2.15 |  | 5.62 |  | 4.81 |  | 0.417 | 1.05 | 1.18 | 0.397 |  | 0.538 | 0.188 |  | 1.12 |  | 0.192
CC(=O)[O-].Cn1ccnc1CNCc1nccn1C.[Cu+2].[O-][Cl+3]([O-])([O-])[O-] |  | > 100 |  | > 100 |  |  | > 100 | > 100 |  | > 100 |  |  | 96.9 |  |  | > 100 | > 100 | > 100 |  | > 100
CN(C)c1ccc2oc(=O)c3ccccc3c2c1 | > 100 | 78.9 | 84.1 | > 100 | 62.9 | > 100 | > 100 | > 100 |  | > 100 |  |  |  |  |  |  |  |  |  | 
COc1cc(/C=C/C(=O)/C=C/c2ccc(-n3ccnc3C)cc2)ccc1O | 13.5 | 3.18 | 84.2 | > 100 | 10.4 | 39.3 | 12.1 | 12.1 | 3.15 |  | 3.33 | 26 | 24.6 | 3.04 | 14.9 |  | 3.4 | 2.9 | 1.51 | 1.66
COc1ccc2c(c1)c(-c1nc(-c3c[nH]c4ccncc34)cs1)cn2C | 3.09 | 2.88 | 3.4 | 3.13 | 3.17 | 3.06 |  | 3.37 | 2.97 |  | 1.68 | 1.84 | 1.69 | 1.77 | 1.64 |  |  | 1.77 | 1.58 | 1.49
CCOC(=O)C(=O)CC1=Nc2ccccc2SC(c2cccc(C)c2)C1 (stereo not given) | 33.2 |  | 30.5 |  | 30.3 | 31.8 |  | 32.2 | 28.7 |  |  |  |  |  |  |  |  |  |  | 
Cc1cccc(C)c1NC(=O)C1=NC(=S)NC(c2ccccc2)C1c1nc2ccccc2s1 (stereo not given) | > 100 | > 100 | > 100 | > 100 | > 100 |  | > 100 | > 100 | > 100 |  |  |  |  |  |  |  |  |  |  | 
C[CH2][Ge]([CH2]C)([CH2]C)[O]C(=O)C(OC(C)=O)c1ccccc1 (stereo not given) | > 100 |  |  | > 100 | > 100 | > 100 | > 100 | > 100 | > 100 | > 100 | > 100 |  | > 100 | > 100 | > 100 | > 100 | > 100 | > 100 | > 100 | 
N#C/C(=C/c1ccc2c(c1)OCO2)C(=O)c1ccccc1 | > 100 |  | > 100 | > 100 | > 100 | > 100 | > 100 | > 100 | > 100 |  |  |  |  |  |  |  |  |  |  | 
COCc1c(-c2cc3cc(C)cc(OC)c3s2)c2c(N)ncnn2c1CN1CCNC(=O)C1 | 34.6 |  | 8.61 | 21.5 | 55.5 | 77 | 24.4 | > 100 | 11.9 | 13.5 | 4.06 | 2.83 | 3.05 | 4.31 | 4.11 | 3.05 | 5.13 | 4.3 | 1.76 | 
